Measurements from patent publication US10301272B2, “Carboxamide or sulfonamide substituted thiazoles and related derivatives as modulators for the orphan nuclear receptor ROR[γ]” (Phenex Pharmaceuticals AG, priority 2012, dated 2019).
Where two headings read alike, the source gives them in different places.

How the values were obtained:
[1] = biological target: RORγ ligand binding domain (LBD) (Homo sapiens (Human), UniProt P51449); assay: TR-FRET Activity Assay (ligand sensing assay, LANCE); conditions: for pIC50 (FRET): TR-FRET, interaction of RORγ-LBD with coactivator peptide
Source text: The ligand-binding domain (LBD) of RORγ was expressed as fusion protein with GST in BL-21 (BL3) cells using the vector pDEST15. Cells were lysed by lysozyme-treatment and sonication, and the fusion proteins purified over glutathione sepharose (Pharmacia) according to the manufacturers instructions. For screening of compounds for their influence on the RORγ-peptide interaction, the LANCE technology (Perkin Elmer) was applied. This method relies on the binding dependent energy transfer from a donor to an acceptor fluorophor attached to the binding partner of interest. For ease of handling and reduction of background from compound fluorescence LANCE technology makes use of generic fluorophore labels and time resolved detection assays were done in a final volume of 25 μL in a 384 well plate, in a Tris-based buffer system (20 mM Tris-HCl pH 6.8; 60 mM KCl, 1 mM DTT; 5 mM MgCl2; 35 ng/μL BSA), containing 20-60 ng/well recombinantly expressed RORγ-LBD fused to GST, 200-600 nM N-terminally biotinylated peptide, 200 ng/well Streptavidin-xlAPC conjugate (Prozyme) and 6-10 ng/well Eu W1024-antiGST (Perkin Elmer). DMSO content of the samples was kept at 1%.
After generation of the Tris-based buffer system, the potentially RORγ modulating ligands were diluted. […] The LANCE signal was detected by a Perkin Elmer EnVision™ Multilabel Counter. […] Ligands that promote the complex formation induce a concentration-dependent increase in time-resolved fluorescent signal.
Y is the response. Y starts at Bottom and goes to Top with a sigmoidal shape.
This is identical to the “four parameter logistic equation”. The IC50 values are calculated using this equation.

RORγ = RORγ (Homo sapiens, UniProt P51449); assay: RORγ Gal4 Reporter Gene Assay; assay type: cell-based; conditions: for IC50: 293T cells
How it was run: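 Cells at 5×10^5/well were transfected with RORγ fragments fused to the GAL4 DNA-binding domain (CMV promoter), a 5×GAL4-site firefly luciferase reporter and CMV-Renilla luciferase for normalization. About 4 h later serum-free MEM and compound were added (vehicle ≤0.1%). Cultures at 37 °C, 5% CO2; at least triplicates.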

[2] = firefly (FF) luciferase, read-out: pIC50 (FF) (converted)
[3] = renilla normalised (RENnorm) luciferase, read-out: pIC50 (REN) (converted)

Sequence of RORγ ligand binding domain (LBD) (P51449 269-508): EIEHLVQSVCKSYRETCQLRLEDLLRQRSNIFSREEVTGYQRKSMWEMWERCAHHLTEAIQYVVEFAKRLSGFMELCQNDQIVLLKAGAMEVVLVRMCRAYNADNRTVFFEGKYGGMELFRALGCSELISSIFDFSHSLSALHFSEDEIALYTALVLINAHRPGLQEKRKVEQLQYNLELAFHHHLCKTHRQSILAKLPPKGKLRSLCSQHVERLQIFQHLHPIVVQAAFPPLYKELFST
Sequence of RORγ (P51449 whole entry, looked up, the tested form may be a part): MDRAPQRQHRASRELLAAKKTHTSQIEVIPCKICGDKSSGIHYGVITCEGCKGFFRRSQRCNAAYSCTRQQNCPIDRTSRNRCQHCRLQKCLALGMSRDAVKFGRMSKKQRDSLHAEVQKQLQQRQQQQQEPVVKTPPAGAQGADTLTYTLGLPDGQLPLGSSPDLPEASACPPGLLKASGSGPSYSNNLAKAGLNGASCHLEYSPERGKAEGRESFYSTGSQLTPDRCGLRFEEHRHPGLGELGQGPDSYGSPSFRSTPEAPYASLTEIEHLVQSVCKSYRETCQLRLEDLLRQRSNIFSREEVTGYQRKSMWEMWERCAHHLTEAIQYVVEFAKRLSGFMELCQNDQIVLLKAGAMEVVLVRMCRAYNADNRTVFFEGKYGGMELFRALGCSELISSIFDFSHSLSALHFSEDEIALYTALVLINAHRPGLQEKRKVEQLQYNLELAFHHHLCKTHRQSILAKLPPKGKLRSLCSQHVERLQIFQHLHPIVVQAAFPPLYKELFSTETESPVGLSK

| IC50 [1] | Structure (SMILES) | pIC50 (FRET) [1] | pIC50 (FF) (RORγ) | pIC50 (REN) (RORγ) | IC50 (RORγ; [2]) | IC50 (RORγ; [3]) |
| --- | --- | --- | --- | --- | --- | --- |
|  | CC(C)(C)NS(=O)(=O)c1ccc(-c2oc(C(=O)N3CC4(CCSCC4)C3)nc2CC2CCCCC2)c2ccccc12 [100/11] | 6.8/7.1/7.3 | 6.8/7.1/7.3 | 6.8/7.1/7.3 |  |  |
|  | CC(C)(C)NS(=O)(=O)c1ccc(-c2oc(C(=O)N[C@H]3C[C@H](C(=O)O)C3)nc2CC2CCCCC2)c2ccccc12 [100/13] | 6.1/7.0/7.1 | 6.1/7.0/7.1 | 6.1/7.0/7.1 |  |  |
|  | CC(C)(C)NS(=O)(=O)c1ccc(-c2oc(C(=O)NC34CCC(C(=O)O)(CC3)CC4)nc2CC2CCCCC2)c2ccccc12 [100/14] | 5.8/7.9/7.9 | 5.8/7.9/7.9 | 5.8/7.9/7.9 |  |  |
|  | CC(C)(O)CNC(=O)c1nc(CC2CCCCC2)c(-c2ccc(S(=O)(=O)NC(C)(C)C)c(Cl)c2Cl)o1 [100/15] | 6.4/7.4/7.5 | 6.4/7.4/7.5 | 6.4/7.4/7.5 |  |  |
|  | CC(C)(C)NS(=O)(=O)c1ccc(-c2oc(C(=O)NC3CCS(=O)(=O)CC3)nc2CC2CCCCC2)c(Cl)c1Cl [100/16] | 6.6/8.4/8.2 | 6.6/8.4/8.2 | 6.6/8.4/8.2 |  |  |
|  | CC(C)(C)NS(=O)(=O)c1ccc(-c2oc(C(=O)N[C@H]3C[C@H](C(=O)O)C3)nc2CC2CCCCC2)c(Cl)c1Cl [100/17] | 6.1/7.1/7.0 | 6.1/7.1/7.0 | 6.1/7.1/7.0 |  |  |
|  | CC(C)(C)c1cc(-c2oc(C(=O)NC3CCOCC3)nc2CC2CCCCC2)cc(C2(C)CC2)c1 [100/18] | 6.9/6.9/6.9 | 6.9/6.9/6.9 | 6.9/6.9/6.9 |  |  |
|  | CC(C)(CNC(=O)c1nc(CC2CCCCC2)c(-c2cc(C(C)(C)C)cc(C3(C)CC3)c2)o1)C(=O)O [100/19] | 5.9/6.6/6.6 | 5.9/6.6/6.6 | 5.9/6.6/6.6 |  |  |
|  | CC(C)(C)c1cc(-c2oc(C(=O)N[C@H]3C[C@H](C(=O)O)C3)nc2CC2CCCCC2)cc(C2(C)CC2)c1 [100/20] | 6.0/6.8/7.0 | 6.0/6.8/7.0 | 6.0/6.8/7.0 |  |  |
|  | CC(C)(C)NS(=O)(=O)c1ccc(-c2oc(C(=O)NC3CCC(C)(C(=O)O)CC3)nc2CC2CCCCC2)c2ccccc12 (stereo not drawn) [100/22] | 5.9/6.8/7.0 | 5.9/6.8/7.0 | 5.9/6.8/7.0 |  |  |
|  | CC(C)(C)NS(=O)(=O)c1ccc(-c2oc(C(=O)NC34CCC(C(=O)O)(CC3)C4)nc2CC2CCCCC2)c2ccccc12 [100/23] | 6.1/8.3/8.4 | 6.1/8.3/8.4 | 6.1/8.3/8.4 |  |  |
|  | CC(C)(C)NS(=O)(=O)c1ccc(-c2sc(C(=O)NC3CCS(=O)(=O)CC3)nc2C2CCCCC2)c2ccccc12 [300/2] | 6.9/8.2/8.2 | 6.9/8.2/8.2 | 6.9/8.2/8.2 |  |  |
|  | CCCc1nc(C(=O)NC2CCS(=O)(=O)CC2)sc1-c1ccc(S(=O)(=O)NC(C)(C)C)c(Cl)c1Cl [300/5] | 7.0/7.4/7.5 | 7.0/7.4/7.5 | 7.0/7.4/7.5 |  |  |
| 200 nM | CCCc1nc(C(=O)N[C@H]2C[C@H](C(=O)O)C2)sc1-c1ccc(S(=O)(=O)NC(C)(C)C)c(Cl)c1Cl [300/6] |  |  |  | 126 nM | 158 nM |
|  | CC1CCCCN1C(=O)c1nc(C(=O)NCC(C)(C)O)sc1-c1ccc(S(=O)(=O)NC(C)(C)C)c2ccccc12 (stereo not drawn) [304/7] | 6.1/7.3/7.3 | 6.1/7.3/7.3 | 6.1/7.3/7.3 |  |  |
|  | CC1CC(C)CN(C(=O)c2nc(C(=O)NCC(C)(C)O)sc2-c2ccc(S(=O)(=O)NC(C)(C)C)c3ccccc23)C1 (stereo not drawn) [304/8] | 6.0/6.9/6.9 | 6.0/6.9/6.9 | 6.0/6.9/6.9 |  |  |
|  | CC(C)(C)c1cc(-c2nc(C(N)=O)sc2CC2CCCCC2)cc(C(C)(C)C)c1 [Example 1, 5-(Cyclohexylmethyl)-4-(3,5-di-tert-butylphenyl)thiazole-2-carboxamide] | 6.5/5.8/5.8 | 6.5/5.8/5.8 | 6.5/5.8/5.8 |  |  |

| IC50 [1] | Structure (SMILES) | pIC50 (FRET) [1] | pIC50 (FF) (RORγ) | pIC50 (REN) (RORγ) | IC50 (RORγ; [2]) | IC50 (RORγ; [3]) |
| --- | --- | --- | --- | --- | --- | --- |
|  | CC(C)(C)c1cc(-c2nc(S(N)(=O)=O)sc2CC2CCCCC2)cc(C(C)(C)C)c1 [Example 2, 5-(Cyclohexylmethyl)-4-(3,5-di-tert-butylphenyl)thiazole-2-sulfonamide] | 5.9/6.1/6.0 | 5.9/6.1/6.0 | 5.9/6.1/6.0 |  |  |
|  | CC(=O)NS(=O)(=O)c1nc(-c2cc(C(C)(C)C)cc(C(C)(C)C)c2)c(CC2CCCCC2)s1 [Example 3, N-((5-(Cyclohexylmethyl)-4-(3,5-di-tert-butylphenyl)thiazol-2-yl)sulfonyl)acetamide] | 5.1 |  |  | > 20000 nM | > 20000 nM |
|  | CC(C)(C)c1cc(-c2sc(S(N)(=O)=O)nc2CC2CCCCC2)cc(C(C)(C)C)c1 [Example 4, 4-(Cyclohexylmethyl)-5-(3,5-di-tert-butylphenyl)thiazole-2-sulfonamide] | 6.8/6.4/6.4 | 6.8/6.4/6.4 | 6.8/6.4/6.4 |  |  |
|  | CC(C)(C)c1cc(-c2sc(C(N)=O)nc2CC2CCCCC2)cc(C(C)(C)C)c1 [Example 5, 4-(Cyclohexylmethyl)-5-(3,5-di-tert-butylphenyl)thiazole-2-carboxamide] | 6.7/6.3/6.1 | 6.7/6.3/6.1 | 6.7/6.3/6.1 |  |  |
|  | COC(=O)C(C)(C)CCNC(=O)c1nc(CC2CCCCC2)c(-c2cc(C(C)(C)C)cc(C3(C)CC3)c2)s1 [Example 6, Methyl 4-(5-(3-(tert-butyl)-5-(1-methylcyclopropyl)phenyl)-4-(cyclohexylmethyl)thiazole-2-carboxamido)-2,2-dimethylbutanoate] | 6.7/6.2/6.3 | 6.7/6.2/6.3 | 6.7/6.2/6.3 |  |  |
|  | CC(C)(C)NS(=O)(=O)c1ccc(-c2sc(C(=O)NCC3(C(N)=O)CCOCC3)nc2CC2CCCCC2)cc1C(C)(C)C [Example 6/1] | 6.5/7.5/7.7 | 6.5/7.5/7.7 | 6.5/7.5/7.7 |  |  |
|  | CC(C)(CCNC(=O)c1nc(CC2CCCCC2)c(-c2cc(C(C)(C)C)cc(C3(C)CC3)c2)s1)C(=O)O [Example 7, 4-(5-(3-(tert-Butyl)-5-(1-methylcyclopropyl)phenyl)-4-(cyclohexylmehthyl)thiazole-2-carboxamido)-2,2-dimethylbutanoic acid] | 6.3/7.0/7.0 | 6.3/7.0/7.0 | 6.3/7.0/7.0 |  |  |
|  | CC(C)(C)NS(=O)(=O)c1ccc(-c2sc(C(=O)NCCC(C)(C)C(=O)O)nc2CC2CCCCC2)cc1C(C)(C)C [Example 7/1] | 6.1/6.8/6.9 | 6.1/6.8/6.9 | 6.1/6.8/6.9 |  |  |
|  | CC(C)(C)c1cc(-c2sc(C(=O)NC3CCOCC3)nc2CC2CCCCC2)cc(C2(C)CC2)c1 [Example 8, 5-(3-(tert-Butyl)-5-(1-methylcyclopropyl)phenyl)-4-(cyclohexylmethyl)-N-(tetrahydro-2H-pyran-4-yl)thiazole-2-carboxamide] | 7.0/7.3/7.5 | 7.0/7.3/7.5 | 7.0/7.3/7.5 |  |  |
|  | CC(C)(C)NS(=O)(=O)c1ccc(-c2sc(C(=O)NCCC(C)(C)C(=O)O)nc2CC2CCCCC2)cc1C(F)(F)F [Example 9/1] | 6.5/7.4/7.4 | 6.5/7.4/7.4 | 6.5/7.4/7.4 |  |  |
|  | CC(C)(C)NS(=O)(=O)c1ccc(-c2sc(C(=O)NCCC(C)(C)C(N)=O)nc2CC2CCCCC2)cc1C(F)(F)F [Example 10, N-(4-Amino-3,3-dimethyl-4-oxobutyl)-5-(4-(N-(tert-butyl)sulfamoyl)-3-(trifluoromethyl)phenyl)-4-(cyclohexylmethyl)thiazole-2-carboxamide] | 5.9/6.9/7.0 | 5.9/6.9/7.0 | 5.9/6.9/7.0 |  |  |
|  | CNC(=O)C(C)(C)CCNC(=O)c1nc(CC2CCCCC2)c(-c2ccc(S(=O)(=O)NC(C)(C)C)c(C(F)(F)F)c2)s1 [Example 10/1] | 6.2/7.0/7.1 | 6.2/7.0/7.1 | 6.2/7.0/7.1 |  |  |
|  | CC(C)(C)c1cc(-c2sc(S(=O)(=O)NC(=O)OCc3ccccc3)nc2CC2CCCCC2)cc(C2(C)CC2)c1 [Example 12, Benzyl (5-(3-(tert-butyl)-5-(1-methylcyclopropyl)phenyl)-4-(cyclohexylmethyl)thiazol-2-yl)sulfonylcarbamate] | 5.5 |  |  | > 20000 nM | > 20000 nM |
|  | CC(C)(C)c1cc(-c2sc(S(N)(=O)=O)nc2CC2CCCCC2)cc(C2(C)CC2)c1 [Example 13, 5-(3-(tert-Butyl)-5-(1-methylcyclopropyl)phenyl)-4-(cyclohexylmethyl)thiazole-2-sulfonamide] | 7.0/6.5/6.7 | 7.0/6.5/6.7 | 7.0/6.5/6.7 |  |  |
|  | CC(C)(C)NS(=O)(=O)c1ccc(-c2sc(S(N)(=O)=O)nc2CC2CCCCC2)cc1C(C)(C)C [Example 13/1] | 6.3/6.6/6.6 | 6.3/6.6/6.6 | 6.3/6.6/6.6 |  |  |
|  | N#CC1(NS(=O)(=O)c2ccc(-c3sc(C(=O)N4CC5(CCS(=O)(=O)CC5)C4)nc3CC3CCCCC3)c3ccccc23)CC1 [Example 14, N-(1-Cyanocyclopropyl)-4-(4-(cyclohexylmethyl)-2-(7,7-dioxido-7-thia-2-azaspiro[3.5]nonane-2-carbonyl)thiazol-5-yl)naphthalene-1-sulfonamide] | 6.7/7.6/7.7 | 6.7/7.6/7.7 | 6.7/7.6/7.7 |  |  |
|  | CC(C)(CO)NS(=O)(=O)c1ccc(-c2sc(C(=O)N3CC4(CCS(=O)(=O)CC4)C3)nc2CC2CCCCC2)c2ccccc12 [Example 14/1] | 6.2/7.1/7.1 | 6.2/7.1/7.1 | 6.2/7.1/7.1 |  |  |
